Experimental data: patent US8802695B2, “Apoptosis signal-regulating kinase 1 inhibitors” (Takeda Pharmaceutical Company Limited, priority 2010, dated 2014)

Key:
ASK1 [1] = biological target: T1, ASK1 (Homo sapiens (Human), UniProt Q99683); experiment: Homogeneous Time-Resolved Fluorescence (HTRF) assay for inhibitory effect against ASK1 (Example C; KinEASE STK S3 kit); assay type: biochemical; details: 25 nM ASK1, 100 μM ATP, read-out: Enzyme Activity C IC50
Source text: (§1) The inhibitory effect of the compound of the invention on ASK1 may be evaluated by evaluating the phosphorylating activity of the enzyme on a known substrate with or without the presence of the test compound. Example B provides such an assay where myelin basic protein (Wako) is used as substrate and detection is by scintillation counting. It should be understood other substrates and detection mechanism may be used. A commercially available a kit, Cisbio's HTRF® KinEASE™ STK kit, has shown to be useful for evaluating ASK1 activity. The assay uses an anti-phosphoseric specific, Eu^3+-Cryptate labeled antibody to mark the phosphorylated product of ASK1 on a biotinylated kinase substrate, and detection is by time resolved fluorescence using XL665 labeled streptavidin. The fluorescence intensity is proportional to the amount of product formation. Example C provides the assay protocol.
Homogeneous Time-Resolved Fluorescence (HTRF) Assay for Measuring the Inhibitory Effect of Exemplified Compounds of the Invention Against ASK1
Recombinant human ASK1 is purchased from Millipore (Cat #14-606). The enzymatic assay of ASK1 is set up by using HTRF® KinEASE™ STK S3 kit, the Universal Assay for Serine/Threonine Kinases kit from CisBio.
The inhibitory properties of compounds to ASK1 may be determined using a white 384-well-plate format under the following reaction conditions: 25 nM ASK1, 1 μM CisBio STK S3-biotion peptide, 100 μM ATP, and 1%-2% DMSO in kinase assay buffer of 50 mM HEPES, pH 7.3, 10 mM NaCl, 10 mM MgCl2, 0.01% Brij35, 0.2 mM EDTA, and 1 mM DTT. Reaction product is determined quantitatively by HTRF after the addition of detection reagent SA-XL665 and STK-antibody-cryptate.
The assay reaction may be initiated as follows: 2 μl of the mixture of 3 μM CisBio STK S3-biotion peptide and 300 μM ATP with 2 μl of test compound (2 fold serial dilutions for 11 data points for each inhibitor) containing 3%-6% DMSO are added to each well of the plate, followed by the addition of 2 μL of 75 nM ASK1 to initiate the reaction (final enzyme concentration was 25 nM for ASK1). The reaction mixture may then be incubated at room temperature for 1 hour, and quenched and developed by the addition of 6 μL of 100-fold diluted STK-antibody-Cryptate and 250 nM SA-XL665 in Cisbio HTRF detection buffer (50 mM HEPES, pH7.0, 0.1% BSA, 0.8 M KF, and 20 mM EDTA). The fluorescence intensity is measured at 620 nm (Cryptate) and 665 nm (XL665) after a 1-2 hour incubation at room temperature. A ratio is calculated (665/620) for each well and is fitted to the standard IC50 curve to determine inhibition constants (IC50).
Target sequence in this assay (Q99683 649-946): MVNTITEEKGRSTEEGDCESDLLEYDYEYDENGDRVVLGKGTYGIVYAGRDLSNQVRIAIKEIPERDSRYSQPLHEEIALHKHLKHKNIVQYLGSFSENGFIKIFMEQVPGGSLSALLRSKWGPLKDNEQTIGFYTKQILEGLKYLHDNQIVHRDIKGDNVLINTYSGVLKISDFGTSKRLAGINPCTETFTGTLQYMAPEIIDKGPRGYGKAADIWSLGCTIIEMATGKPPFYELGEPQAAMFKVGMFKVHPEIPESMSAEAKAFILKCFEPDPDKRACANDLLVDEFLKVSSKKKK

ASK1 [2] = biological target: T1, ASK1; experiment: Scintillation assay for inhibitory effect against ASK1 (Example B; myelin basic protein substrate, [γ-32P]ATP); assay type: biochemical; details: 2.5 μM ATP solution, read-out: Enzyme Activity B IC50
Source text: as §1
Target sequence in this assay (Q99683 650-1374): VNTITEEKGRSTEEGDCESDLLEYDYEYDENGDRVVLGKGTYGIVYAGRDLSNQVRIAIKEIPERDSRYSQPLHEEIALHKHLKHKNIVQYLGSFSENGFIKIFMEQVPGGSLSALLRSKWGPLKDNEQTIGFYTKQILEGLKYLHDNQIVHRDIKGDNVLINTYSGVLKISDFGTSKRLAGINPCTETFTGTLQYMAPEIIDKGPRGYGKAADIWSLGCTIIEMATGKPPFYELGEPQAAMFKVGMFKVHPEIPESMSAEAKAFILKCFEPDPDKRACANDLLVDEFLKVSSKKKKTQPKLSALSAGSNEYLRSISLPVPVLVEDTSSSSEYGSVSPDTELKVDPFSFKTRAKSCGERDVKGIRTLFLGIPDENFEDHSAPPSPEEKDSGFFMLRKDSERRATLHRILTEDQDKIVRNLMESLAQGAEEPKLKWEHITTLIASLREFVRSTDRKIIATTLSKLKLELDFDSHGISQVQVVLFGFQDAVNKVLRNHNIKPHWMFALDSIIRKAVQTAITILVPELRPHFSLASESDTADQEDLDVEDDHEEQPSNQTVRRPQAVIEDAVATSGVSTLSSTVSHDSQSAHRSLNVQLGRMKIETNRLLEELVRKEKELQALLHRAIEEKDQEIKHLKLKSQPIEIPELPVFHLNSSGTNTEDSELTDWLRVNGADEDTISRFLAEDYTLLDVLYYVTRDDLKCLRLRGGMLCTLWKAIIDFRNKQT
Cloning of cDNA encoding human ASK1 was conducted by PCR using primers, 5′-[…] […]-3′ (SEQ ID NO: 1) and 5′-AAAGCGGCCGCTCAA […]-3′ (SEQ ID NO: 2), from human heart cDNA library (Becton, Dickinson and Company). The PCR product was subjected to agarose gel (1%) electrophoresis, a 2.2 kb DNA fragment containing an ASK1 gene was recovered from the gel, and then digested with restriction enzymes, NotI and SalI, and inserted into a plasmid pFASTBAC1 (Invitrogen) to prepare a plasmid pFB-ASK1. The insert was verified by sequencing. Recombinant baculovirus was prepared according to the procedure of the Bac-to-Bac baculovirus expression system (Invitrogen).
Sf-21 cells were seeded to achieve 1×10^6 cells/mL in 100 mL of Sf-900 II SFM medium (Invitrogen) which contains 10% fetal calf serum and then cultured at 27° C. for 24 hrs. To express ASK1 in cells, 0.15 mL of the recombinant baculovirus virus stock was added to cells, and the then cultured for 60 hrs. The cells were separated from the culture solution by centrifugation at 3000 rpm for 10 min and washed once with PBS. The cells were suspended in 10 mL of lysis buffer (25 mM HEPES (pH 7.5), 1% Triton X, 130 mM NaCl, 1 mM EDTA, 1 mM DTT, 25 mM (3-glycerophosphate, Protease inhibitor complete (Roche), 1 mM sodium orthovanadate) and ruptured by four times of treatment with a homogenizer (POLYTRON) at 20000 rpm for 30 seconds. Active ASK1 protein was purified from a supernatant obtained by centrifugal separation at 40000 rpm for 45 min using anti-FLAG M2 Affinity Gel (Sigma).
Scintillation Assay for Measuring the Inhibitory Effect of Exemplified Compounds of the Invention Against ASK1
The test compounds (2.5 μL) dissolved in DMSO were added to wells containing 37.5 μL of the reaction solution (25 mM HEPES (pH 7.5), 10 mM magnesium acetate, 1 mM DTT) including 30 ng of active ASK1 protein and 1 μg of myelin basic protein (Wako), and incubated at room temperature for 5 min. To start the reaction, 10 μL of ATP solution (2.5 μM ATP, 0.1 μCi [γ-^32P]ATP) was added to wells. After incubating at room temperature for 30 min, the reaction was terminated by adding 50 μL of 20% TCA solution. The reaction solution was incubated at 4° C. for 30 min and an acid-insoluble fraction was transferred onto a GF/C filter (Packard) with Cell Harvester (Packard), and washed with 250 mM phosphoric acid. After drying at 45° C. for 60 min., 40 μL of Microscint 0 (Packard) was added and the radioactivity was measured with TopCount (Packard). The concentrations (IC50 value) of the test compounds necessary for 50% inhibition of kinase activity were calculated by PRISM 3.0 (Graphpad Software).

With `CCn1cc(Cl)c2cnc(NC(=O)c3ccc([C@@](C)(O)CO)cc3)cc21` [Compound 14, (R)—N-(3-chloro-1-ethyl-1H-pyrrolo[3,2-c]pyridin-6-yl)-4-(1,2-dihydroxypropan-2-yl)benzamide] the melting point was 224.4 to 225.1 °C, the IC50 (ASK1 [1]) was 16 nM and the IC50 (ASK1 [2]) was 6 nM.

In the case of `CCn1cc(Br)c2cnc(NC(=O)c3ccc([C@@](C)(O)CO)cc3)cc21` [Compound 20, (R)—N-(3-bromo-1-ethyl-1H-pyrrolo[3,2-c]pyridin-6-yl)-4-(1,2-dihydroxypropan-2-yl)benzamide], the IC50 (ASK1 [1]) is reported as 10 nM and the IC50 (ASK1 [2]) is reported as 2 nM.

With `C[C@](O)(CO)c1ccc(C(=O)Nc2cc3c(cn2)c(Br)cn3C2CC2)cc1` [Compound 22, (R)—N-(3-bromo-1-cyclopropyl-1H-pyrrolo[3,2-c]pyridin-6-yl)-4-(1,2-dihydroxypropan-2-yl)benzamide] the IC50 (ASK1 [1]) was 7 nM and the IC50 (ASK1 [2]) was 2 nM.

For `C[C@](O)(CO)c1ccc(C(=O)Nc2cc3c(cn2)c(Cl)cn3C2CC2)cc1` [Compound 23, (R)—N-(3-chloro-1-cyclopropyl-1H-pyrrolo[3,2-c]pyridin-6-yl)-4-(1,2-dihydroxypropan-2-yl)benzamide], the IC50 (ASK1 [1]) was 6 nM and the IC50 (ASK1 [2]) was 4 nM.

Compound `Cn1cc(Cl)c2cnc(NC(=O)c3ccc(C(C)(C)O)cc3)cc21` [Compound 24, N-(3-chloro-1-methyl-1H-pyrrolo[3,2-c]pyridin-6-yl)-4-(2-hydroxypropan-2-yl)benzamide] has an IC50 (ASK1 [1]) of 18 nM and an IC50 (ASK1 [2]) of 11 nM.

With `Cn1c(Cl)c(Cl)c2cnc(NC(=O)c3ccc(C(C)(C)O)cc3)cc21` [Compound 25, N-(2,3-dichloro-1-methyl-1H-pyrrolo[3,2-c]pyridin-6-yl)-4-(2-hydroxypropan-2-yl)benzamide] the IC50 (ASK1 [1]) was 146 nM and the IC50 (ASK1 [2]) was 60 nM.

In the case of `CCn1cc(Cl)c2cnc(NC(=O)c3ccc([C@](C)(O)CO)cc3)cc21` [Compound 26, (S)—N-(3-chloro-1-ethyl-1H-pyrrolo[3,2-c]pyridin-6-yl)-4-(1,2-dihydroxypropan-2-yl)benzamide], the melting point is reported as 223 to 223.9 °C, the IC50 (ASK1 [1]) is reported as 12 nM and the IC50 (ASK1 [2]) is reported as 9 nM.

`Cn1cc(Cl)c2cnc(NC(=O)c3ccc([C@](C)(O)CO)cc3)cc21` [Compound 29, (S)—N-(3-chloro-1-methyl-1H-pyrrolo[3,2-c]pyridin-6-yl)-4-(1,2-dihydroxypropan-2-yl)benzamide] gave a melting point of 210 to 212 °C and an IC50 (ASK1 [1]) of 38 nM.

`Cn1c(Cl)c(Cl)c2cnc(NC(=O)c3ccc([C@](C)(O)CO)cc3)cc21` [Compound 30, (S)—N-(2,3-dichloro-1-methyl-1H-pyrrolo[3,2-c]pyridin-6-yl)-4-(1,2-dihydroxypropan-2-yl)benzamide] showed a melting point of 205 to 208 °C.

`Cn1cc(Cl)c2cnc(NC(=O)c3ccc([C@@](C)(O)CO)cc3)cc21` [Compound 31, (R)—N-(3-chloro-1-methyl-1H-pyrrolo[3,2-c]pyridin-6-yl)-4-(1,2-dihydroxypropan-2-yl)benzamide] showed a melting point of 210 to 212 °C and an IC50 (ASK1 [1]) of 19 nM.
